A short description of data set [1]: Viscosity Test Method (cone and plate viscometer/rheometer). Format: physicochemical. The following applies: Sepigel 1.89%. From the text: The hair care composition may have a viscosity of from about 2,000 cps to about 20,000 cps, alternatively from about 10,000 cps to about 15,000 cps. The viscosity of the hair care composition may be determined by a cone and plate viscometer/rheometer which measures the viscous drag resulting from the sample material contained in the gap between a rotating cone and a stationary plate. The geometry of the cone and plate may be such that the entire sample is subjected to a uniform shear rate. A Brookfield Rheometer RS, with Cone C75-1, 26.7° C. temperature, 2.5 mL sample size, at 2 res/sec for 3 minutes may be used.

Data set [2] in a line: Measurement of Average Thickness Increase of single hair fibers. Conditions: Sepigel 1.89%, Example 1 formula, fibers treated 10 minutes, dried overnight. As to the method: Measurement of Average Thickness Increase
• 1) Asian or Caucasian hair fibers (low-lift general population) are soaked in deionized water for 10 minutes, and allowed to equilibrate overnight in at Controlled Temperature and Humidity room (20 C, 50 RH). • 2) The single hair fibers are imaged with microscope and the diameter is measured using software for baseline measurement. • 3) The hair fibers are then treated with the hair care composition for 10 minutes to allow for saturation. The fibers are then removed and allowed to equilibrate and dry overnight. • 4) The next day, the fibers are imaged and measured for a final reading. For each experiment, untreated control and product treatment controls are ran, and at least 5 fibers are measured per treatment. • 5) In order to measure increase in thickness as a function of treatment, the […]. The average thickness increase is reported in the Table above, with measurements reported in micrometers. Viscosity Test Method

The values that follow come from patent publication US9610233B2, “Hair thickening compositions and methods of use” (The Procter & Gamble Company, priority 2013, dated 2017).

For `Oc1cccc(O)c1` [Resorcinol, 1,3-Dihydroxybenzene], the Viscosity in data set [1] (composition with Resorcinol 0.5%) came to 14767 cps; in data set [1] (composition with Resorcinol 1%), 12115 cps; in data set [1] (composition with Resorcinol 2%), 13812 cps; in data set [1] (composition with Resorcinol 5%) it was 12047 cps; in data set [1] (composition with Resorcinol 8%), 10308 cps. Also, the “Average Thickness Increase” value in data set [2] (Resorcinol 0.5%) was found to be 4.2 μm; in data set [2] (Resorcinol 1%) it was 3.9 μm; in data set [2] (Resorcinol 2%), 13.5 μm; in data set [2] (Resorcinol 5%), 10.7 μm; in data set [2] (Resorcinol 8%), 10.3 μm.
